Source: patent EP0228113A2 (priority 1985, dated 1987)
In brackets after ≈: the same amount, converted by molar mass.

Columns and labels:
Type in all cases: cell-based
L.pneumophila gr. 2 = experiment: microbe, parasite or virus in culture; details: Legionella pneumophila, GR.2, 48 h, pH 6
L.pneumophila gr. 3 = experiment: microbe, parasite or virus in culture; details: Legionella pneumophila, GR.3, 48 h, pH 6
L.bozemanii gr. 1 = experiment: microbe, parasite or virus in culture; details: pH 6; 48 hours; 37°C
L.longbeachae gr. 1 = experiment: microbe, parasite or virus in culture; details: pH 6; 48 hours; 37°C
L.pneumophila gr. 4 = experiment: microbe, parasite or virus in culture; details: Legionella pneumophila, GR.4, 48 h, pH 6
L.longbeachae gr. 2 = experiment: microbe, parasite or virus in culture; details: pH 6; 48 hours; 37°C
L.dumoffii = experiment: microbe, parasite or virus in culture; details: pH 6; 48 hours; 37°C
L.gormanii = experiment: MIC determination on buffered charcoal yeast-extract agar (Example I); details: Fluoribacter gormanii, pH 6,9, 48 hours, 37°C
L.pneumophila gr. 6 = experiment: microbe, parasite or virus in culture; details: Legionella pneumophila, GR.6, 48 h, pH 6
L.wadsworthii = experiment: microbe, parasite or virus in culture; details: pH 6; 48 hours; 37°C
L.pneumophila gr. 5 = experiment: microbe, parasite or virus in culture; details: Legionella pneumophila, GR.5, 48 h, pH 6
L.micdadei = experiment: microbe, parasite or virus in culture; details: pH 6; 48 hours; 37°C
L.pneumophila gr. 7 = experiment: microbe, parasite or virus in culture; details: Legionella pneumophila, GR.7, 48 h, pH 6
L.pneumophila gr. 8 = experiment: microbe, parasite or virus in culture; details: Legionella pneumophila, GR.8, 48 h, pH 6
L.jordanis = experiment: microbe, parasite or virus in culture; details: pH 6; 48 hours; 37°C
L.pneumophila gr.10 = experiment: microbe, parasite or virus in culture; details: Legionella pneumophila, GR.10, 48 h, pH 6
L.oakridgensis = experiment: microbe, parasite or virus in culture; details: pH 6; 48 hours; 37°C
L.pneumophila gr. 9 = experiment: microbe, parasite or virus in culture; details: Legionella pneumophila, GR.9, 48 h, pH 6
Myxococcus xanthus = experiment: MIC determination on casitone agar (Example III); details: 96 h, pH 7.6, casitone agar pH 7,6, four days, 30°C
[1] = tested on: Legionella pneumophila gr. 1; experiment: microbe, parasite or virus in culture; details: GR.1, 96 h, pH 6
[2] = tested on: Legionella pneumophila gr. 5; experiment: microbe, parasite or virus in culture; details: GR.5, 96 h, pH 6

Row | Structure (SMILES) | MIC (L.pneumophila gr. 2) [µg/mL] | MIC (L.pneumophila gr. 3) [µg/mL] | MIC (L.bozemanii gr. 1) [µg/mL] | MIC (L.longbeachae gr. 1) [µg/mL] | MIC (L.pneumophila gr. 4) [µg/mL] | MIC (L.longbeachae gr. 2) [µg/mL] | MIC (L.dumoffii) [µg/mL] | MIC (L.gormanii) [µg/mL] | MIC (L.pneumophila gr. 6) [µg/mL] | MIC (L.wadsworthii) [µg/mL] | MIC (L.pneumophila gr. 5) [µg/mL] | MIC (L.micdadei) [µg/mL] | MIC (L.pneumophila gr. 7) [µg/mL] | MIC (L.pneumophila gr. 8) [µg/mL] | MIC (L.jordanis) [µg/mL] | MIC (L.pneumophila gr.10) [µg/mL] | MIC (L.oakridgensis) [µg/mL] | MIC (L.pneumophila gr. 9) [µg/mL] | MIC (Myxococcus xanthus) [µg/mL] | MIC [1] [µg/mL] | other results
1 | c1ccc(-c2ccc(C(c3ccccc3)n3ccnc3)cc2)cc1 (stereo not drawn) [bifonazole] | 128 (≈ 412 µM) | 128 (≈ 412 µM) | 128 (≈ 412 µM) | 64 (≈ 206 µM) | 128 (≈ 412 µM) | 64 (≈ 206 µM) | 64 (≈ 206 µM) | 128 (≈ 412 µM) | 64 (≈ 206 µM) | 32 (≈ 103 µM) | 64 (≈ 206 µM) | 64 (≈ 206 µM) | 128 (≈ 412 µM) | 128 (≈ 412 µM) | 64 (≈ 206 µM) | 128 (≈ 412 µM) | 64 (≈ 206 µM) | 128 (≈ 412 µM) |  |  | 
2 | Clc1ccccc1C(c1ccccc1)(c1ccccc1)n1ccnc1 [clotrimazole] | 16 (≈ 46.4 µM) | 8 (≈ 23.2 µM) | 8 (≈ 23.2 µM) | 16 (≈ 46.4 µM) | 16 (≈ 46.4 µM) | 16 (≈ 46.4 µM) | 16 (≈ 46.4 µM) | 8 (≈ 23.2 µM) | 16 (≈ 46.4 µM) | 8 (≈ 23.2 µM) | 16 (≈ 46.4 µM) | 16 (≈ 46.4 µM) | 16 (≈ 46.4 µM) | 16 (≈ 46.4 µM) | 16 (≈ 46.4 µM) | 16 (≈ 46.4 µM) | 8 (≈ 23.2 µM) | 16 (≈ 46.4 µM) | 2 (≈ 5.8 µM) |  | 
3 | CCC1COC(Cn2cncn2)(c2ccc(Cl)cc2Cl)O1 (stereo not drawn) [etaconazole] |  |  |  |  |  |  |  |  |  |  |  |  |  |  |  |  |  |  |  | > 100 | MIC [2]: > 100 µg/mL
4 | OC(c1ccc(Cl)cc1)(c1cncnc1)c1ccccc1Cl (stereo not drawn) [fenarimol] |  |  |  |  |  |  |  |  |  |  |  |  |  |  |  |  |  |  |  | 100 (≈ 302 µM) | MIC [2]: 100 µg/mL (≈ 302 µM)
5 | Clc1ccccc1C(c1ccc(-c2ccccc2)cc1)n1ccnc1 (stereo not drawn) [lombazole] | 128 (≈ 371 µM) | 128 (≈ 371 µM) | 128 (≈ 371 µM) | 64 (≈ 186 µM) | 128 (≈ 371 µM) | 64 (≈ 186 µM) | 64 (≈ 186 µM) | 64 (≈ 186 µM) | 64 (≈ 186 µM) | 32 (≈ 92.8 µM) | 64 (≈ 186 µM) | 64 (≈ 186 µM) | 128 (≈ 371 µM) | 128 (≈ 371 µM) | 64 (≈ 186 µM) | 64 (≈ 186 µM) | 64 (≈ 186 µM) | 128 (≈ 371 µM) | 2 (≈ 5.8 µM) |  | 
6 | Clc1ccc(COC(Cn2ccnc2)c2ccc(Cl)cc2Cl)c(Cl)c1 (stereo not drawn) [miconazole] | 128 (≈ 308 µM) | 128 (≈ 308 µM) | 128 (≈ 308 µM) | 128 (≈ 308 µM) | 128 (≈ 308 µM) | 128 (≈ 308 µM) | 128 (≈ 308 µM) | 128 (≈ 308 µM) | 128 (≈ 308 µM) | 128 (≈ 308 µM) | 128 (≈ 308 µM) | 128 (≈ 308 µM) | 128 (≈ 308 µM) | 128 (≈ 308 µM) | 128 (≈ 308 µM) | 128 (≈ 308 µM) | 64 (≈ 154 µM) | 128 (≈ 308 µM) | 2 (≈ 4.81 µM) |  | 
7 | CCCCCCCCCCCCCN1CC(C)OC(C)C1 (stereo not drawn) [tridemorph] |  |  |  |  |  |  |  |  |  |  |  |  |  |  |  |  |  |  |  | 100 (≈ 336 µM) | MIC [2]: 50 µg/mL (≈ 168 µM)
